Test results from ChEMBL document CHEMBL5257140, “Novel Imidazotriazine Derivatives as IL-17 Modulators for Treating Inflammatory and Autoimmune Disorders” (ACS Med Chem Lett, 2023).

Test: Inhibition of IL-6 release in IL-17A/TNFalpha-stimulated HDF cells preincubated with IL-17A and TNFalpha for 5 hrs followed by […] to assay plate and measured after 18 to 20 hrs by europium cryptate and Alexa 665 reagent based FRET assay
Format: functional, cell-based
Settings: Homo sapiens, NHDF

IC50 | Structure (SMILES)
3.98 nM | Cc1nonc1C(=O)N[C@H](c1cn2ncc([C@H]3C[C@H](O)CCN3C(=O)[C@@H]3CCC(F)(F)CO3)nc2n1)C1CCC(F)(F)CC1
3.98 nM | Cc1nonc1C(=O)N[C@H](c1cn2ncc([C@@H]3COCCN3C(=O)C3CCC(F)(F)CO3)nc2n1)C(C1CC1)C1CC1 (stereo partly specified)
2.51 nM | Cc1nonc1C(=O)N[C@H](c1cn2ncc([C@@H]3C[C@@](O)(C(F)(F)F)CCN3C(=O)[C@@H]3CCC(F)(F)CO3)nc2n1)C1CCC(F)(F)CC1
5.01 nM | Cc1nonc1C(=O)N[C@H](c1cn2ncc([C@H]3C[C@](C)(O)CCN3C(=O)[C@@H]3CCC(F)(F)CO3)nc2n1)C1CCC(F)(F)CC1
3.98 nM | Cc1nonc1C(=O)N[C@H](c1cn2ncc([C@@H]3C[C@](C)(O)CCN3C(=O)[C@@H]3CCC(F)(F)CO3)nc2n1)C1CCC(F)(F)CC1
6.31 nM | Cc1nonc1C(=O)N[C@H](c1cn2ncc([C@@H]3COCCN3C(=O)[C@@H]3CCC(F)(F)CO3)nc2n1)C1CCC(F)(F)CC1
